In US20130310611A1, “PROCESS FOR PRODUCTION OF PHENOLIC POLYMERIZABLE COMPOUND HAVING PHYSIOLOGICAL ACTIVITY” (UHA MIKAKUTO CO., LTD., priority 2010, published 2013):
Like-named read-outs stand apart in the source and are kept apart here.

Assays:
[1] = Solubility (physicochemical properties); settings: for Solubility: DMSO: solvent DMSO; for Solubility: Chloroform: solvent chloroform; for Solubility: Ethanol: solvent ethanol; for Solubility: Ethyl acetate: solvent ethyl acetate; for Solubility: Methanol: solvent methanol; for Solubility: Water: solvent water
[2] = tested on: HL-60 cells (human promyelocytic leukemia cells); assay: Cancer cell growth suppressing action using HL-60 cells (MTT method, Cell counting kit-8); type: cell-based; settings: 24 hours, 6.3-100 μM, read-out: Cell growth suppressing ability to HL-60 (IC50)
Protocol: Next, in order to see the effect of the phenolic polymerizable compound to cancer cells, cancer cell growth suppressing action using HL-60 cells (human promyelocytic leukemia cells) was tested.
For culturing the HL-60 cells, an enriched culture medium “RPMI-1640” (manufactured by Sigma-Aldrich Japan) containing 4 mM glutamine (L-Glutamine, manufactured by Sigma-Aldrich Japan) and 10% FBS (Foetal Bovine Serum, manufactured by Biological Industries) was used. For the test, a 96-well plate for cell culture (manufactured by Corning Japan) was used, and the HL-60 cells whose number of cells was adjusted to be 5×10^5 cells/mL were seeded at 100 μL per well.
As samples, p-coumaric acid, ferulic acid, coffeic acid, and sinapic acid, and the UHA6005, the UHA6006, the UHA7004, the UHA7009, the UHA7010, the UHA7011, the UHA8015, the UHA9019, and the UHA9020 which were already purified were used. With respect to the preparation of the samples, each compound was dissolved in DMSO (Wako Pure Chemical Industries, Ltd.), and then adjusted in such a manner that the final concentration in the HL-60 cell culture solutions was 6.3 μM, 12.5 μM, 25 μM, 50 μM, and 100 μM. Then, the test was started.
The number of viable cells was quantified by an MTT method using a “Cell counting kit-8” (manufactured by DOJINDO LABORATORIES). 24 hours after starting the test, 10 μl of a Cell counting kit-8 solution was added to each well, and then sufficiently stirred. After a shading reaction for 1 hour, the absorbancy was measured at a measurement wavelength of 450 nm using a plate leader (Biorad Laboratories, Inc., “BIO-RAD Model 680”). Then, the cell viability was calculated based on the obtained data. The cell viability is a value obtained by setting the number of viable cells of the culture liquid to which only DMSO as a solvent was added to 100%, and then calculating the number of viable cells under the concentration of each compound as a relative value. From the relationship between the concentration of each compound and the cell viability, the concentration IC50 (50% inhibition concentration) at which the cell growth is suppressed by 50% was calculated.

[3] = target: rat intestine derived lipase; assay: Lipase inhibitory action test (Lipase kit S); type: biochemical; settings: 30° C., 10 minutes reaction
Protocol: In order to see the inhibitory action to lipase of the phenolic polymerizable compound, an inhibitory action test using rat intestine derived lipase was performed.
As lipase, one obtained by suspending 100 mg of rat derived intestine acetone powder (manufactured by Sigma-Aldrich Japan) in 1 ml of 100 mM citric acid buffer (pH 6.0), stirred at 4° C. for 1 hour, centrifuging the same (at 15000 rpm for 45 minutes at 4° C.), and then diluting the supernatant by 1500 times was used as a lipase solution.
As samples, p-coumaric acid, ferulic acid, and coffeic acid and the UHA6005, the UHA6006, the UHA7009, the UHA7010, the UHA7011, the UHA8015, and the UHA9020 which were already purified were used. With respect to the preparation of the samples, each compound was dissolved in DMSO, and then prepared in such a manner as to achieve 0.1 mM, 0.5 mM, 1 mM, 2 mM, and 4 mM.
For measuring the activity, a “Lipase kit S” (Trade name, manufactured by Dainippon Pharmaceutical Co., Ltd.) was used. First, in accordance with a preparation method described in the catalog of the Lipase kit S, a color developing liquid was prepared. Reaction liquids in which 70 μl of the color developing liquid, 2 μl of an esterase inhibitor, 10 μl of the lipase solution, and 10 μl of the samples (Final concentration: 10 μM, 50 μM, 100 μM, 200 μM, 400 μM, and 1000 μM) were mixed were prepared, preincubated at 30° C. for 5 minutes, and then 8 μl of a substrate solution described in the catalog was added. Then, a reaction was started. After reacting for 10 minutes, 150 μl of a reaction stop liquid prepared in accordance with the preparation method described in the catalog of the Lipase kit S was added to stop the reaction. The resultant substance was subjected to a measurement of absorbancy at a wavelength of 415 nm. A reaction liquid to which only DMSO as the solvent of the sample was added was used as a positive control and one to which 10 μl of 100 mM citric acid buffer (pH 6.0) was added instead of the lipase solution was used as a negative control. From the relationship between the lipase inhibition rate calculated based on the data obtained therefrom and the concentration of each compound, the concentration IC50 at which the lipase activity is inhibited by 50% was calculated.

[4] = tested on: SCC-4 cells (human oral cancer cells, ATCC); assay: Cancer cell growth suppressing action using SCC-4 cells (MTT method, Cell counting kit-8); type: cell-based; settings: 6.3-100 μM, read-out: Cell growth suppressing ability (IC50)
Protocol: Next, in order to see the effect of the phenolic polymerizable compound to oral cancer cells, cancer cell growth suppressing action using SCC-4 cells (human oral cancer cells, ATCC) was tested.
For culturing the SCC-4 cells, a DMEM/F-12 (1:1) culture medium (manufactured by GIBCO) containing 400 ng/mL hydrocortisone (manufactured by Sigma-Aldrich Japan), 1% antibiotic-antimycotic (manufactured by GIBCO), and 10% FBS (Foetal Bovine Serum, manufactured by ATCC) was used. For the test, a collagen I coat 96 well plate for cell culture (manufactured by Japan BD) was used, and SCC-4 cells whose number of cells was adjusted to be 5×10^5 cells/mL were seeded at 100 μL per well. The cells were cultured under the conditions of 37° C. and 5% CO2 for 24 hours, and were used for the test in a confluent state of 80% or higher.
As samples, p-coumaric acid and coffeic acid and the UHA6005, the UHA7009, the UHA7010, and the UHA7011 which were already purified were used. With respect to the preparation of the samples, each compound was dissolved in DMSO, and then prepared in such a manner as to achieve 0.63 mM, 1.25 mM, 2.5 mM, 5 mM, and 10 mM. The samples were added in such a manner that the final concentration in the SCC-4 cell culture solution was 6.3 μM, 12.5 μM, 25 μM, 50 μM, and 100 μM. Then, the test was started. A sample to which an equivalent amount of only DMSO as the solvent was added was used as a negative control.
The number of viable cells was quantified by an MTT method using a “Cell counting kit-8” in the same manner as in Example 18, and the concentration IC50 at which the cell growth is suppressed by 50% was calculated.

| Compound | Solubility: DMSO [1] | Solubility: Chloroform [1] | Solubility: Ethanol [1] | Solubility: Ethyl acetate [1] | Solubility: Methanol [1] | Solubility: Water [1] | IC50 ([2]; Homo sapiens) [µM] | IC50 [3] [µM] | IC50 [2] [µM] | IC50 [4] [µM] | IC50 ([4]; Homo sapiens) [µM] |
| --- | --- | --- | --- | --- | --- | --- | --- | --- | --- | --- | --- |
| O=C(O)/C=C/c1ccc(O)c(O)c1 [Coffeic acid, reference compound] |  |  |  |  |  |  |  | > 1000 | > 100 | > 100 |  |
| COc1cc(/C=C/C(=O)O)ccc1O [Ferulic acid, reference compound] |  |  |  |  |  |  | > 100 | > 1000 |  |  |  |
| COc1cc(/C=C/C(=O)O)cc(OC)c1O [Sinapic acid, reference compound] |  |  |  |  |  |  | > 100 |  |  |  |  |
| O=C(O)/C=C/c1ccc(O)cc1 [p-coumaric acid, reference compound] |  |  |  |  |  |  | > 100 | > 1000 |  |  | > 100 |

Results, then the compound that gave them:

| Solubility: DMSO [1] | Solubility: Chloroform [1] | Solubility: Ethanol [1] | Solubility: Ethyl acetate [1] | Solubility: Methanol [1] | Solubility: Water [1] | IC50 ([2]; Homo sapiens) [µM] | IC50 [3] [µM] | IC50 [2] [µM] | IC50 [4] [µM] | IC50 ([4]; Homo sapiens) [µM] | Compound |
| --- | --- | --- | --- | --- | --- | --- | --- | --- | --- | --- | --- |
| Soluble | Soluble | Soluble | Soluble | Soluble | Non-soluble | 74.3 | 350 |  |  |  | COc1cc(C(C)/C=C/c2ccc(O)cc2)ccc1O (single isomer, unassigned) [UHA8015] |
| Soluble | Soluble | Soluble | Soluble | Soluble | Poorly soluble | 43.7 | 253 |  |  | 69.7 | CC(/C=C/c1ccc(O)c(O)c1)c1ccc(O)c(O)c1 (centres unmarked) [UHA6005] |
| Soluble | Soluble | Soluble | Soluble | Soluble | Poorly soluble | 42.4 | 188 |  |  |  | CC(/C=C/c1cc(O)c(O)cc1C(C)c1ccc(O)c(O)c1)c1ccc(O)c(O)c1 (centres unmarked) [UHA6006] |
| Soluble | Soluble | Soluble | Soluble | Soluble | Poorly soluble | 17.6 |  |  |  |  | COc1cc(/C=C/C(C)c2ccc(O)c(OC)c2)ccc1O (centres unmarked) [UHA7004] |
| Soluble | Soluble | Soluble | Soluble | Soluble | Poorly soluble | 49.3 | 438 |  |  | 72.9 | CC(/C=C/c1ccc(O)cc1)c1ccc(O)cc1 (centres unmarked) [UHA7009] |
| Soluble | Soluble | Soluble | Soluble | Soluble | Poorly soluble | 35.3 | 60.4 |  |  | 61.1 | CC(CC(/C=C/c1ccc(O)cc1)c1ccc(O)cc1)c1ccc(O)cc1 (centres unmarked) [UHA7010] |
| Soluble | Soluble | Soluble | Soluble | Soluble | Poorly soluble | 35.4 | 197 |  |  | 40.8 | CC(/C=C/c1ccc(O)c(C(C)c2ccc(O)cc2)c1)c1ccc(O)cc1 (centres unmarked) [UHA7011] |
| Soluble | Soluble | Soluble | Soluble | Soluble | Poor soluble | 66.2 |  |  |  |  | COc1cc(/C=C/C(C)c2cc(OC)c(O)c(OC)c2)cc(OC)c1O (centres unmarked) [UHA9019] |
| Soluble | Soluble | Soluble | Soluble | Soluble | Non-soluble | 38.5 | 118 |  |  |  | COc1cc(/C=C/C(C)c2ccc(O)c(O)c2)ccc1O (centres unmarked) [UHA9020] |
